Source: US10034895B2 (priority 2017, dated 2018)

Key:
[1] = tested on: HeLa cells (ATCC CCL-2); experiment: Trypan blue viability study of cultured HeLa cells
Procedure: (§1) Cells for culture were obtained from the Cell Culture Facility at Duke University. PLLA was microwave synthesized from L-lactic acid as previously reported. Lactic acid concentration was measured by tetrazolium indicator color test strips (Accuvin, LLC, Napa, Calif.) from the reaction of L-lactic acid and […] in the presence of lactate dehydrogenase. All cells were cultured at 37° C. and 5% CO2 in a HERA cell incubator (Kendro Laboratory Products, L.P., Newtown, Conn.). Media for cells was Minimum Essential Media with Earl's salts and L-Glutamine (Gibco, Life Technologies) with 10% fetal bovine serum and non-essential amino acids and sodium pyruvate. Antibiotics for experiment #2 were penicillin/streptomycin and for experiments #3-4 were penicillin/streptomycin/amphotericin B. All drug testing was performed in Costar 6 Well Culture Cluster plates (Corning, Corning, N.Y.). The trypan blue concentration was 0.4%.
(§2) HeLa cells (ATCC CCL-2) were cultured on six well plates. […] The cells were incubated for 12 hours, after which time they were stained with 1 ml trypan blue for two minutes. The media and trypan blue were aspirated from each well, and the cells were then placed under an inverted microscope for photography.

[2] = tested on: Normal human fibroblast cells (ATCC CCL-171); experiment: Trypan blue viability study of normal human fibroblast cells; details: for cytotoxicity of D-lactic acid dimer compared with L-lactic acid: cultured normal fibroblasts, FIGS. 13-16; for Cell characteristic: cells non-viable (trypan blue): normal fibroblasts, 12 hours
Procedure: as §1
as §2, with “Normal human fibroblast” for “HeLa”, “CCL-171)” for “CCL-2)”, “subcultured onto” for “cultured on”, “hours” for “hours,”

[3] = Stereocomplex reaction of L-lactic acid + D-lactic acid dimer (tetrazolium L-lactic acid test strips); details: room temperature, two minutes
Procedure: as §1
The reactions were carried out at room temperature and allowed to incubate for two minutes after which 20 microliters were applied to L-lactic acid test strips, and the results were read after two minutes.

[4] = tested on: Human retinoblastoma cells (ATCC C-33A); experiment: Trypan blue viability study of human retinoblastoma cells (dose response); details: conclusion of Experiment 3
Procedure: (§3) Cells for culture were obtained from the Cell Culture Facility at Duke University. […] All cells were cultured at 37° C. and 5% CO2 in a HERA cell incubator (Kendro Laboratory Products, L.P., Newtown, Conn.). Media for cells was Minimum Essential Media with Earl's salts and L-Glutamine (Gibco, Life Technologies) with 10% fetal bovine serum and non-essential amino acids and sodium pyruvate. Antibiotics for experiment #2 were penicillin/streptomycin and for experiments #3-4 were penicillin/streptomycin/amphotericin B. All drug testing was performed in Costar 6 Well Culture Cluster plates (Corning, Corning, N.Y.). The trypan blue concentration was 0.4%.
(§4) Human retinoblastoma cells (ATCC C-33A) were cultured in six well plates. […] The cells were incubated for 12 hours after which time they were stained with 1 ml trypan blue for two minutes. The media and trypan blue were aspirated from each well, and the cells were examined with an inverted microscope for photography.

[5] = tested on: Human retinoblastoma cells; experiment: as above; details: 12 hours
Procedure: as §3, §4

Row | Compound | concentration at which cytotoxic when applied to HeLa cells ([1]; HeLa, conclusion of Experiment 2) | cytotoxicity compared to PLLA ([1]; cultured HeLa cells, FIGS. 2 & 3) | concentration at which selectively cytotoxic when locally applied to cancer cells ([1]; summary over cancer cells (HeLa and retinoblastoma)) | cytotoxicity of D-lactic acid dimer compared with L-lactic acid [2] | Cell characteristic: cells non-viable (trypan blue) ([2]; 1.50 mg in 1 ml media) | Cell characteristic: cells non-viable (trypan blue) ([2]; 12.5 mg in 1 ml media) | Cell characteristic: cells non-viable (trypan blue) ([2]; 25 mg in 1 ml media) | Tetrazolium indicator (L-lactic acid remaining) ([3]; 0.5 mg dimer in 40 microliters of 10 mM L-lactic acid) | Tetrazolium indicator (L-lactic acid remaining) ([3]; 1.0 mg dimer in 40 microliters of 10 mM L-lactic acid) | Tetrazolium indicator (L-lactic acid remaining) ([3]; 5.0 mg dimer in 40 microliters of 10 mM L-lactic acid) | Tetrazolium indicator (L-lactic acid remaining) ([3]; 7.0 mg dimer in 40 microliters of 10 mM L-lactic acid) | effective cytotoxic dose / concentration on human retinoblastoma cells [4] | Trypan blue staining for non-viable cells ([5]; 6.25 mg in 1 ml media) | Trypan blue staining for non-viable cells ([5]; 25 mg in 1 ml media)
1 | C[C@@H](O)C(=O)O[C@H](C)C(=O)O [D-lactic acid dimer] | ≥ 5 mg/mL | more cytotoxic than a mixture of PLLA oligomers | 5.00 to 6.25 mg/mL | less cytotoxic on a molar basis than L-lactic acid | 0% cells non-viable | 100% cells non-viable | 100% cells non-viable | 80 mg/L | no color change | no color change | no color change | greater than 6.25 mg/ml | Thirty | Fifty
2 | C[C@H](O)C(=O)O [L-lactic acid, reference compound] | – | – | – | more cytotoxic than D-lactic acid dimer | – | – | – | – | – | – | – | – | – | –
